The source of these data is US9045445B2, “Glycine transporter-1 inhibitors, methods of making them, and uses thereof” (Albany Molecular Research, Inc., priority 2010, dated 2015).

For assay [1], the target named is T1, glycine transporter-1 (GlyT-1) (Homo sapiens, UniProt P48067).
T1 construct: JAR cells (ATCC#HTB-144), which endogenously express GlyT-1; host or cells: JAR human choriocarcinoma cells
T1 sequence (P48067 1-706): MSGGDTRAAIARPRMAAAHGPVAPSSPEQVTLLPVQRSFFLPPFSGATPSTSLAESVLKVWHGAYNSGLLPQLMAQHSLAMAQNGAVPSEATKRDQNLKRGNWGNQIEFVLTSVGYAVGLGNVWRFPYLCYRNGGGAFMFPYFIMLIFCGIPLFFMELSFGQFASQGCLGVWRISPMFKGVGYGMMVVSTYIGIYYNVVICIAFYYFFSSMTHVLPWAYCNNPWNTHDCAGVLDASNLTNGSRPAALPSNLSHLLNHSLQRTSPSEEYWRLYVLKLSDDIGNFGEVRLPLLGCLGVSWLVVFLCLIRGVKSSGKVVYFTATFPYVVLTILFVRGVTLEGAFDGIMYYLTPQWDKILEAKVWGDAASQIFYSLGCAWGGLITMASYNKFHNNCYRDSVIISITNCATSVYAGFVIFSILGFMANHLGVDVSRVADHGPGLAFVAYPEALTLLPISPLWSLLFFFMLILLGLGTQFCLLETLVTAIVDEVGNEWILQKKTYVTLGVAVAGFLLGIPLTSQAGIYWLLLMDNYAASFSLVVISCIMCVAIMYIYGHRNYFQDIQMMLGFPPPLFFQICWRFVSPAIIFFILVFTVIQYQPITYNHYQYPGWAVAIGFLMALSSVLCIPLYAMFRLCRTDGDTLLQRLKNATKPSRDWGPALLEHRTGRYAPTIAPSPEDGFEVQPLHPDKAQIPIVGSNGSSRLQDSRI
Kind of assay: [14C]glycine uptake assay in JAR cells endogenously expressing GlyT-1 (scintillation proximity). It is filed as cell-based. Particulars: JAR cells, [14C]glycine 5 μM, 3 hour incubation; read-out: GlyT-1 IC50. The gist of the method: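 Human choriocarcinoma JAR cells (endogenous GlyT-1) attached overnight, then pre-incubated 10 min at room temperature with compound in pH 7.4 Hepes uptake buffer containing 5 mM alanine and 0.75% DMSO. Uptake of 5 μM [14C]glycine over 3 h at 37 °C read by scintillation proximity; IC50 from four-parameter fit of nine-point curves.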
For orientation: Scintillation proximity formats need no separation of bound from free tracer.

Assay [2] concerns the target T2, glycine transporter-2 (GlyT-2) (Homo sapiens, UniProt Q9Y345).
T2 construct: expressed in transfected cells
T2 sequence (Q9Y345 1-797): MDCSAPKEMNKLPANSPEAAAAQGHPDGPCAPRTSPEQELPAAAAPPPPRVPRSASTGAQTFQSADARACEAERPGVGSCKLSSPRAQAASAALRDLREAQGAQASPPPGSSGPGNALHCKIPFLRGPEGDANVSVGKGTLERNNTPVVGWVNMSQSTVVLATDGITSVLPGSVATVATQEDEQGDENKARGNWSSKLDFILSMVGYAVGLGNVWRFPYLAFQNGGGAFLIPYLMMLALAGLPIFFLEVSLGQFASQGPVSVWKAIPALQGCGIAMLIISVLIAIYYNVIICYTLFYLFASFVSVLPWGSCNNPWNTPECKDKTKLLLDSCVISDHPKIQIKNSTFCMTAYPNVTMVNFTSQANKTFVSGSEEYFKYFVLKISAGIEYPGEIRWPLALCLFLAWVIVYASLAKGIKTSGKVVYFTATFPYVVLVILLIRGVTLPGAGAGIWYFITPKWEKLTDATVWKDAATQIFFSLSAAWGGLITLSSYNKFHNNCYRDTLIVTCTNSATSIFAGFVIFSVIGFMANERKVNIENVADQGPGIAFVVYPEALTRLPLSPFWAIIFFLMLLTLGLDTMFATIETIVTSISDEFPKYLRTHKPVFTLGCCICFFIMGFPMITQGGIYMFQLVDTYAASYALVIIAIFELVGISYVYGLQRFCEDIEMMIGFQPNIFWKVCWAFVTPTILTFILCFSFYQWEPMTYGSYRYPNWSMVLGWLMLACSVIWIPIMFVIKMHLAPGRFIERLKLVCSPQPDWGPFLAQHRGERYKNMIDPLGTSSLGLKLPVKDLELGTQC
The assay can be described thus: [14C]glycine uptake assay in HEK-GlyT-2 transfected cells. The class given is cell-based. The conditions noted are these: HEK-GlyT-2 cells.

Structures can show the parent of a compound that is named as a salt.

Turning to `Cn1cnc(S(=O)(=O)N2CCN(C3(CNC(=O)c4ccccc4OC(F)(F)F)CCC(F)(F)CC3)CC2)c1` [compound 161, N-((4,4-difluoro-1-(4-(1-methyl-1H-imidazol-4-ylsulfonyl)piperazin-1-yl)cyclohexyl)methyl)-2-(trifluoromethoxy) benzamide Hydrochloride], the IC50 (as a rule, the midpoint of a concentration-inhibition curve) in assay [1] was 1 nM; in assay [2], > 75 µM.

As for `Cn1cnc(S(=O)(=O)N2CCN(C3(CNC(=O)c4ccc(Cl)cc4Cl)CCCCC3)CC2)c1` [compound 97, 2,4-Dichloro-N-((1-(4-(1-methyl-1H-imidazol-4-ylsulfonyl)piperazin-1-yl)cyclohexyl)methyl) benzamide Hydrochloride], the IC50 in assay [1] was 2 nM; in assay [2], > 75 µM.

For the compound `CCCS(=O)(=O)N1CCN(C2(CNC(=O)c3cccc(OC)c3Cl)CCCCCC2)CC1` [compound 65, 2-Chloro-3-methoxy-N-((1-(4-(propylsulfonyl)piperazin-1-yl)cycloheptyl)methyl) benzamide Hydrochloride], the IC50 in assay [1] is 204 nM; in assay [2], > 75 µM.

Take `CCCS(=O)(=O)N1CCN(C2(CNC(=O)c3ccc(Cl)cc3Cl)CCCCC2)CC1` [compound 2, 2,4-Dichloro-N-((1-(4-(propylsulfonyl)piperazin-1-yl)cyclohexyl)methyl)benzamide Hydrochloride]: the results for the IC50 in assay [1] and in assay [2] were 22 nM and 22.7 µM, respectively.

Take `CCCS(=O)(=O)N1CCN(C2(CNC(=O)c3ccc(OC(F)(F)F)cc3)CCCCCC2)CC1` [compound 62, N-((1-(4-(Propylsulfonyl)piperazin-1-yl)cycloheptyl)methyl)-4-(trifluoromethoxy) benzamide Hydrochloride]: the IC50 was found to be 81 nM in assay [1] and 3.64 µM in assay [2].

For `CCCS(=O)(=O)N1CCN(C2(CNC(=O)c3ccc(C(F)(F)F)cc3Cl)CCC(F)(F)CC2)CC1C` (stereo not drawn) [compound 256, 2-Chloro-N-((4,4-difluoro-1-(3-methyl-4-(propylsulfonyl)piperazin-1-yl)cyclohexyl)methyl)-4-(trifluoromethyl) benzamide Hydrochloride], the IC50 in assay [1] was 133 nM; in assay [2], > 75 µM.

As for `CCCS(=O)(=O)N1CCN(C2(CNC(=O)c3ccc(Cl)cc3C(F)(F)F)CCC(F)(F)CC2)CC1` [compound 245, 4-Chloro-N-((4,4-difluoro-1-(4-(propylsulfonyl)piperazin-1-yl)cyclohexyl)methyl)-2-(trifluoromethyl)benzamide Hydrochloride], the IC50 was 18 nM in assay [1] and > 75 µM in assay [2].

On to `CC(C)CS(=O)(=O)N1CCN(C2(CNC(=O)c3c(N)cccc3Cl)CCCCC2)CC1` [compound 92, 2-Amino-6-chloro-N-((1-(4-(isobutylsulfonyl)piperazin-1-yl)cyclohexyl)methyl) benzamide Hydrochloride], for which the results for the half-maximal inhibitory concentration (IC50) in assay [1] and in assay [2] were 952 nM and 54.8 µM, respectively.

Regarding `Cc1cc(F)ccc1C(=O)NCC1(N2CCN(S(=O)(=O)CC3CC3)CC2)CCCCCC1` [compound 85, N-((1-(4-(Cyclopropylmethyl-sulfonyl)piperazin-1-yl)cycloheptyl)methyl)-4-fluoro-2-methylbenzamide Hydrochloride], the IC50 in assay [1] was 182 nM; in assay [2], > 75 µM.

Consider `Cn1cc(S(=O)(=O)N2CCN(C3(CNC(=O)c4ccc(F)cc4F)CCCC3)CC2)nn1` [compound 111, 2,4-Difluoro-N-((1-(4-(1-methyl-1H-1,2,3-triazol-4-ylsulfonyl)piperazin-1-yl)cyclopentyl)methyl) benzamide Hydrochloride], for which the IC50 is 242 nM in assay [1] and > 75 µM in assay [2].

For `CCS(=O)(=O)N1CCN(C2(CNC(=O)c3c(C)cc(F)cc3OC)CCCCCC2)CC1` [compound 87, N-((1-(4-(Ethylsulfonyl)piperazin-1-yl)cycloheptyl)methyl)-4-fluoro-2-methoxy-6-methylbenzamide Hydrochloride], the IC50 was 155 nM in assay [1] and > 75 µM in assay [2].

Consider `CCCS(=O)(=O)N1CCN(C2(CNC(=O)c3c(F)cc(Cl)cc3F)CCCCCC2)CC1` [compound 51, 4-Chloro-2,6-difluoro-N-((1-(4-propylsulfonyl)piperazin-1-yl)cycloheptyl)methyl) benzamide Hydrochloride], for which the figures for the concentration for half-maximal inhibition (IC50) in assay [1] and in assay [2] were 13 nM and > 75 µM, respectively.

For the compound `Cn1cnc(S(=O)(=O)N2CCN(C3(CNC(=O)c4c(F)cccc4F)CCCCC3)CC2)c1` [compound 98, 2,6-Difluoro-N-((1-(4-(1-methyl-1H-imidazol-4-ylsulfonyl)piperazin-1-yl)cyclohexyl)methyl) benzamide Hydrochloride], the IC50 in assay [1] was 4 nM; in assay [2], > 75 µM.

With `COc1cccc(F)c1C(=O)NCC1(N2CCN(S(=O)(=O)c3cn(C)cn3)CC2)CCCCC1` [compound 96, 2-Fluoro-6-methoxy-N-((1-(4-(1-methyl-1H-imidazol-4-ylsulfonyl)piperazin-1-yl)cyclohexyl)methyl) benzamide Hydrochloride], the IC50 is 2 nM in assay [1] and > 75 µM in assay [2].

As for `CCCS(=O)(=O)N1CCN(C2(CNC(=O)c3ccc(Cl)cc3Cl)CCCC2)CC1` [compound 72, 2,4-Dichloro-N-((1-(4-(propylsulfonyl)piperazin-1-yl)cyclopentyl)methyl) benzamide Hydrochloride], the IC50 in assay [1] was 171 nM; in assay [2], > 75 µM.

As for `CC(NC(=O)c1ccc(C(F)(F)F)cc1Cl)C1(N2CCN(S(=O)(=O)c3cn(C)nn3)CC2)CCC(F)(F)CC1` (stereo not drawn) [compound 223, 2-Chloro-N-(1-(4,4-difluoro-1-(4-(1-methyl-1H-1,2,3-triazol-4-ylsulfonyl)piperazin-1-yl)cyclohexyl)ethyl)-4-(trifluoromethyl)benzamide Hydrochloride], the values for the IC50 in assay [1] and in assay [2] were 33 nM and > 75 µM, respectively.

`CCCS(=O)(=O)N1CCN(C2(CNC(=O)c3ccc(Br)cc3C)CCCCC2)CC1` [compound 18, 4-Bromo-2-methyl-N-((1-(4-(propylsulfonyl)piperazin-1-yl)cyclohexyl)methyl) benzamide Hydrochloride]: the IC50 is 28 nM in assay [1] and > 75 µM in assay [2].

Take `CCCS(=O)(=O)N1CCN(C2(CNC(=O)c3ccc(Cl)cc3Cl)CCCCCC2)CC1` [compound 60, 2,4-Dichloro-N-((1-(4-(propylsulfonyl)piperazin-1-yl)cycloheptyl)methyl) benzamide Hydrochloride]: the IC50 in assay [1] was 11 nM; in assay [2] it was > 75 µM.

Consider `CCCS(=O)(=O)N1CCN(C2(CNC(=O)c3ccc(C#N)cc3)CCCCC2)CC1` [compound 17, 4-Cyano-N-((1-(4-(propylsulfonyl)piperazin-1-yl)cyclohexyl)methyl) benzamide Hydrochloride], for which the IC50 in assay [1] was 647 nM; in assay [2] it was > 75 µM.

For the compound `Cn1cnc(S(=O)(=O)N2CCN(C3(CNC(=O)c4c(Cl)cccc4C(F)(F)F)CCC(F)(F)CC3)CC2)c1` [compound 185, 2-Chloro-N-((4,4-difluoro-1-(4-(1-methyl-1H-imidazol-4-ylsulfonyl)piperazin-1-yl)cyclohexyl)methyl)-6-(trifluoromethyl)benzamide Hydrochloride], the figures for the IC50 in assay [1] and in assay [2] were 6 nM and > 75 µM, respectively.

With `CCCS(=O)(=O)N1CCN(C2(CNC(=O)c3ccc(Cl)cc3C3CC3)CCC(F)(F)CC2)CC1` [compound 253, 4-Chloro-2-cyclopropyl-N-((4,4-difluoro-1-(4-(propylsulfonyl)piperazin-1-yl)cyclohexyl)methyl) benzamide Hydrochloride], the results for the IC50 in assay [1] and in assay [2] were 21 nM and > 75 µM, respectively.
